“Also recorded” adds a separate entry of the source. No end group written: not given here.

One series addresses T1, S100P (Homo sapiens, UniProt P25815).
T1 construct: made in house
T1 sequence (P25815 1-95): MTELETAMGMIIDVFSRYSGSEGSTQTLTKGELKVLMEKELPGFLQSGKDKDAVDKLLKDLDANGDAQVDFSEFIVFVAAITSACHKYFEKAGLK
Kind of series: Isothermal titration calorimetry (ITC) of tubulin peptides with S100P. It is filed as binding. As to conditions: ITC, 25°C, 20 mM MES pH 6.1, 50 mM NaCl, 1.0 mM TCEP, 5 mM CaCl2; single site fit; peptide in cell, S100P titrated. On the procedure:
Measurements were conducted using an ITC-200 instrument (Microcal) as previously described. ITC titrations were performed in 20 mM MES pH 6.1, 50 mM NaCl, 1.0 mM TCEP and 5 mM CaCl2 (for Ca^2+-form of S100P) at 25°C. Due to low solubility, peptide solutions at concentrations of 10–400 µM were placed in the cell and titrated with S100P at concentrations of 0.5–3 mM, depending on the peptide concentration. Data were integrated and fitted to a single site binding equation using Origin 7 software which was included with the ITC module (Malvern Microcal, Malvern, U.K.).

Series [1] is classed as physicochemical. As to conditions: pH 6.1. On the procedure:
^1H, ^15N HSQC spectra were measured at 40°C in 20 mM 2-morpholinoethanesulfonic acid sodium salt (MES), 50 mM NaCl, 0.5 mM CaCl2, 2 mM Tris-carboxyethyl-phosphine (TCEP), pH 6.1 buffer as described previously. Samples were prepared from 1.6 mM solution of ^15N-labelled S100P and 2–5 mM peptide solutions to obtain a 1 : 1 mixture of 0.1 mM of S100P and 0.1 mM of each peptide. Initially, peptide solutions were prepared by weight to produce 5 mM peptide concentrations. […] In these cases, buffer was added to reduce the peptide concentration to 2 mM. […] These peptides were added to the protein as cloudy suspensions to produce 0.1 mM solutions; some precipitations were still detected. To estimate the peptide concentrations, equivalent peptide solutions without the protein were prepared. All solutions were centrifuged before the NMR measurements. NMR spectra were collected on Bruker Avance III 800 MHz spectrometer equipped with CryoProbe. Data were processed and analysed in TopSpin 3.5 (Bruker, Karlsruhe, Germany).
Measurements were conducted using an ITC-200 instrument (Microcal) as previously described. ITC titrations were performed in 20 mM MES pH 6.1, 50 mM NaCl, 1.0 mM TCEP and 5 mM CaCl2 (for Ca^2+-form of S100P) at 25°C. […]

For another series, the system named is COS-7 S10 cells. Put plainly: Boyden chamber cell migration, S100P-inducible COS-7. As to conditions: for effect on S100P-enhanced migration: COS-7 S10, 20 nM taxol or 5 µM colchicine, 24 h. The class given is cell-based, monkey. An excerpt:
(§1) Cell migration rate (%) = M/G × 100.

For the next series, the system named is HeLa cells. Put plainly: Boyden chamber cell migration with MT regulators, HeLa. As to conditions: 20 nM taxol, 24 h.
A further series relates to Rama 37 cells. Put plainly: Boyden chamber cell migration with MT regulators, Rama 37. As to conditions: 20 nM taxol, 24 h.
The next series relates to cell migration. As to conditions: almost all cell types tested, ref [17]; cited from earlier work. The source says:
It was reported that complete disruption of MTs in CHO and HeLa cells retained normal migration rates, but the resultant movement became more random and reduced overall travel distance.

A further series has as its system Rama 37-T25 cells. Put plainly: S100P-enhanced cell migration, Rama 37-T25. It is filed as cell-based, rat. As to conditions: Rama 37-T25; 20 nM taxol or 5 µM colchicine, 24 h.
Excerpt: as §1

A further series deals with COS-7 cells. Put plainly: Boyden chamber cell migration, COS-7 parental. The class given is cell-based, monkey.
Excerpt: as §1

Another series concerns HeLa-A3 cells. Kind of series: S100P-enhanced cell migration, HeLa-A3. The class given is cell-based, human. As to conditions: HeLa-A3; 20 nM taxol or 5 µM colchicine, 24 h.
Excerpt: as §1

The subject of another series is MCF-7 cells. Put plainly: Boyden chamber cell migration with MT regulators, MCF-7. As to conditions: 20 nM taxol, 24 h, MCF-7.
In another series the test system is Dicytostelial cells. As to conditions: ref [40]; cited from earlier work. The source says:
It was reported that complete disruption of MTs in CHO and HeLa cells retained normal migration rates, but the resultant movement became more random and reduced overall travel distance. […] Well-established MTs may increase the rigidity of cells as well as their polarity and play a constraining role to limit a cell's ability of moving and changing direction. […] However, unlike the scratch wound- ...

The target of series [2] is T2, α,β-tubulin immobilised on a chip (human | , UniProt Q71U36 1-451; P07437 1-444). Kind of series: SPR; α,β-tubulin immobilised on CM5 chip (BS3), Biacore X100; S100P 20-2000 nM in solution; 0.15 M NaCl, 200 µM CaCl2; multiple-cycle; Kd from extent of binding near equilibrium. As to conditions: both partners purified.
Series [3] deals with T2, α,β-tubulin immobilised on a chip. Kind of series: cell-based or functional assay.
For series [4] the target is unchanged. Kind of series: SPR; α,β-tubulin immobilised on CM5 chip; S100P in solution; high salt buffer (0.5 M NaCl) with 200 µM CaCl2; multiple cycles; Kd at or near equilibrium. As to conditions: both partners purified.
For series [5], the target named is DIC peptide, the 26mer starting with DIC from β-tubulin. Put plainly: ITC; peptide (10-400 µM) in the cell titrated with S100P (0.5-3 mM); 25°C; 20 mM MES pH 6.1, 50 mM NaCl, 1.0 mM TCEP, 5 mM CaCl2; single site fit.
Series [6] addresses VNA peptide from the C terminus of α-tubulin (human). Described as above.
Series [7] has as its target T2, α,β-tubulin immobilised on a chip. Kind of series: SPR; α,β-tubulin immobilised on CM5 chip; S100P in solution; Kd from the ratio of forward and backward rate constants. As to conditions: both partners purified.
For series [8] the target is unchanged. Kind of series: SPR; α,β-tubulin immobilised on CM5 chip; S100P in solution; single-cycle analysis; Kd near equilibrium. As to conditions: both partners purified.

T2 sequence (P68363 whole entry, chain 1 of 2): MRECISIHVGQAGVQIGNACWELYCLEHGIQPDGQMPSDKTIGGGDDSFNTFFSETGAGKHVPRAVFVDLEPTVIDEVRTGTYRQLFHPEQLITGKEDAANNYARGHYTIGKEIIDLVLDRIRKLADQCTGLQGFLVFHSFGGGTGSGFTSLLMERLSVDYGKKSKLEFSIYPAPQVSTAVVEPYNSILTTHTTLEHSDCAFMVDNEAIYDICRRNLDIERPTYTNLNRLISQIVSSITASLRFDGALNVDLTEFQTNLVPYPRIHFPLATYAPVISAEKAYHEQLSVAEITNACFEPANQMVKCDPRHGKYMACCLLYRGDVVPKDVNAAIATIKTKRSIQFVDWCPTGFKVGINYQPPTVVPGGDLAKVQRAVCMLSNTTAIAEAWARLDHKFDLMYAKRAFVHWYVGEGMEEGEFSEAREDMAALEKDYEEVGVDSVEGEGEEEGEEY
T2 sequence (P07437 whole entry, chain 2 of 2): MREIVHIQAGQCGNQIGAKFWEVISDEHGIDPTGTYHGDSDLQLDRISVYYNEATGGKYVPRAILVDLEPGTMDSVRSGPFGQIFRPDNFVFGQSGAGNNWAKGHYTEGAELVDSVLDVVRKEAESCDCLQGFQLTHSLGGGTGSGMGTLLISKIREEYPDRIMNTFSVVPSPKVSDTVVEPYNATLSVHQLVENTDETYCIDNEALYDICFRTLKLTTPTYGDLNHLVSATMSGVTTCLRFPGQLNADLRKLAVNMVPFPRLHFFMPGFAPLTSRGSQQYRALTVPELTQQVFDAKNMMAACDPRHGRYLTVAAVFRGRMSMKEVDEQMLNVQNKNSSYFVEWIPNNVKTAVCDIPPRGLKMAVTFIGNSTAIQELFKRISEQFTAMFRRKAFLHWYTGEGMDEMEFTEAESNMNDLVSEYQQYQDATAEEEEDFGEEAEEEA

DICFRTLKLTTPTYGDLNHLVSATMS [DIC] displayed a Kd on S100P of 9 µM. The “solubility / aggregation (in words)” value in series [1] was “sufficiently soluble to measure their binding parameters by ITC”.
Take `CC(=O)O[C@H]1C(=O)[C@@]2(C)[C@H]([C@H](OC(=O)c3ccccc3)[C@]3(O)C[C@H](OC(=O)[C@H](O)[C@@H](NC(=O)c4ccccc4)c4ccccc4)C(C)=C1C3(C)C)[C@]1(OC(C)=O)CO[C@@H]1C[C@@H]2O` [taxol]: the “effect on S100P-enhanced migration” value was “suppressed” in the series with COS-7 S10 cells, “completely prevents the S100P-induced stimulation of migration” with COS-7 S10 cells (listed as Taxol), “suppressed” in the series with Rama 37-T25 cells and “suppressed” in the series on HeLa-A3 cells. Besides, in the series with COS-7 S10 cells (taxol to stabilise MTs or colchicine to dissociate MTs (abstract)), the “effect on S100P's stimulation of migration” value is reported as “abolished”. Moreover, the “reduction of migration by taxol” value in the series with HeLa cells was 70–75%; in the series on Rama 37 cells it was 70–75%; in the series with COS-7 cells (20 nM taxol, 24 h, COS-7), 70–75%; in the series on MCF-7 cells, 70–75%. Moreover, the “effect on cell migration” value with cell migration is given as “significantly reduced cell migration in almost all cell types tested”. Further, the “dose dependence of taxol effect on migration” value in the series on COS-7 cells (Supplementary Figure S4, COS-7, 24 h) is given as “significantly reduced cell migration in a dose-dependent manner”.
Take `COC(=O)Nc1nc2ccc(C(=O)c3cccs3)cc2[nH]1` [nocodazole]: the “effect on cell migration” value in the series with Dicytostelial cells was “could significantly increase cell migration and shape changes, but reduced chemotaxis; also recorded: dramatically enhance the non-directional (random) movements”.

B1: Recombinant S100P (natural protein)
chain: MTELETAMGMIIDVFSRYSGSEGSTQTLTKGELKVLMEKELPGFLQSGKDKDAVDKLLKDLDANGDAQVDFSEFIVFVAAITSACHKYFEKAGLK
modifications: 15N-labelled in the NMR experiments
notes: S100P; Used in SPR, gel overlay, NMR and ITC; also called 15N-labelled S100P; source: recombinant, produced as described previously [10]
With B1, the Kd in series [2] is 0.31 µM; in [4] it was 6.1 µM; in [5] it was 9 µM; in [6], 62 µM; in series [7], 0.1 to 0.2 µM; in [8], 0.22 µM. The “S100P-induced fold increase in migration of COS-7 S10 cells (3.4 or 3.5 fold with DMSO or Tag), with 20 µM T-DIC” value in [3] came to 1.4 fold. Further, the “S100P-induced fold increase in migration of COS-7 S10 cells (3.4 or 3.5 fold with DMSO or Tag), with 20 µM T-DLV” value in series [3] worked out at 1.5 fold. This molecule registered a stoichiometry N (peptide:protein) in [6] of 2.

The values are drawn from PMC7108782, “Direct interaction of metastasis-inducing S100P protein with tubulin causes enhanced cell migration without changes in cell adhesion” (Biochemical Journal, 2020).
